From ChEMBL document CHEMBL2385074, “Structure-activity relationship analysis of bufadienolide-induced in vitro growth inhibitory effects on mouse and human cancer cells” (J Nat Prod, 2013)
Activity calls are given as the source filed them. The calls are words filed in the database; no cut-off is given here.

Key:
A549 [1] = assay: Cytotoxicity against human A549 cells at <= 10 uM after 3 days by MTT assay; format: functional, cell-based
U-373MG ATCC = assay: Cytotoxicity against human U373 cells at <= 10 uM after 3 days by MTT assay; format: functional, cell-based
PC-3 [2] = assay: Cytotoxicity against human PC3 cells at <= 10 uM after 3 days by MTT assay; format: functional, cell-based
CT26.WT = assay: Cytotoxicity against mouse CT26.WT cells at <= 10 uM after 3 days by MTT assay; format: functional, cell-based
B16-F10 [3] = assay: Cytotoxicity against mouse B16F10 cells at <= 10 uM after 3 days by MTT assay; format: functional, cell-based
Hs 683 = assay: Cytotoxicity against human Hs683 cells at <= 10 uM after 3 days by MTT assay; format: functional, cell-based
MCF7 [4] = assay: Cytotoxicity against human MCF7 cells at <= 10 uM after 3 days by MTT assay; format: functional, cell-based
SK-MEL-28 [5] = assay: Cytotoxicity against human SK-MEL-28 cells at <= 10 uM after 3 days by MTT assay; format: functional, cell-based
SK-MEL-28 [6] = assay: Cytotoxicity against human SK-MEL-28 cells after 3 days by MTT assay; format: functional, cell-based; details: SK-MEL-28, 72 h
[7] = Cytotoxicity against mouse CT26.WT cells after 3 days by MTT assay; format: functional, cell-based; details: 72 h
B16-F10 [8] = assay: Cytotoxicity against mouse B16F10 cells after 3 days by MTT assay; format: functional, cell-based; details: B16-F10, 72 h
[9] = Cytotoxicity against human Hs683 cells after 3 days by MTT assay; format: functional, cell-based; details: Hs 683, 72 h
A549 [10] = assay: Cytotoxicity against human A549 cells after 3 days by MTT assay; format: functional, cell-based; details: A549, 72 h
[11] = Cytotoxicity against human U373 cells after 3 days by MTT assay; format: functional, cell-based, U-373MG ATCC; details: U373 MG, 72 h
PC-3 [12] = assay: Cytotoxicity against human PC3 cells after 3 days by MTT assay; format: functional, cell-based; details: PC-3, 72 h
MCF7 [13] = assay: Cytotoxicity against human MCF7 cells after 3 days by MTT assay; format: functional, cell-based; details: MCF7, 72 h

Compound | Activity (A549 [1]) | Activity (U-373MG ATCC) | Activity (PC-3 [2]) | Activity (CT26.WT) | Activity (B16-F10 [3]) | Activity (Hs 683) | Activity (MCF7 [4]) | Activity (SK-MEL-28 [5]) | IC50 (SK-MEL-28 [6]) [nM] | IC50 [7] [µM] | IC50 (B16-F10 [8]) [µM] | IC50 [9] [nM] | IC50 (A549 [10]) [nM] | IC50 [11] [nM] | IC50 (PC-3 [12]) [nM] | IC50 (MCF7 [13]) [nM]
COC(=O)[C@H]1CC[C@]2(O)[C@@H]3CC[C@@H]4C[C@@H](OC(C)=O)CC[C@]4(C)[C@H]3[C@H](OC(C)=O)C[C@]12C | inactive | inactive | inactive | inactive | inactive | inactive | inactive | inactive | – | – | – | – | – | – | – | –
COC(=O)[C@H]1[C@@H](O)[C@H]2O[C@]23[C@@H]2CC[C@@H]4C[C@@H](OC(C)=O)CC[C@]4(C)[C@H]2CC[C@]13C | inactive | inactive | inactive | inactive | inactive | inactive | inactive | inactive | – | – | – | – | – | – | – | –
CC(=O)N[C@@H]1CC[C@@]2(C)[C@H](CC[C@@H]3[C@@H]2CC[C@]2(C)[C@@H](c4ccc(=O)oc4)[C@@H](OC(C)=O)[C@H]4O[C@]342)C1 | – | – | – | – | – | – | – | – | 3510 | > 10 | > 10 | 312 | 302 | 384 | 426 | 726
CC(=O)O[C@H]1CC[C@@]2(C)[C@H](CC[C@@H]3[C@@H]2[C@H](OC(C)=O)C(=O)[C@]2(C)[C@@H](c4ccc(=O)oc4)CC[C@]32O)C1 | – | – | – | – | – | – | – | – | 7980 | > 10 | > 10 | 2620 | 5910 | 8810 | > 10000 | 7260
C[C@@H]1O[C@@H](O[C@H]2CC[C@@]3(C)[C@H](CC[C@@H]4[C@@H]3[C@H](O)C[C@]3(C)[C@@H](c5ccc(=O)oc5)CC[C@]43O)C2)[C@H](O)[C@H](O)[C@H]1O | – | – | – | – | – | – | – | – | 5 | 0.877 | 0.659 | 2 | < 1 | 3 | < 1 | 8
COC(=O)[C@H]1CC[C@]2(OC=O)[C@@H]3CC[C@@H]4C[C@@H](OC(C)=O)CC[C@]4(C)[C@H]3[C@H](OC(C)=O)C(=O)[C@]12C | inactive | inactive | inactive | inactive | inactive | inactive | inactive | inactive | – | – | – | – | – | – | – | –
C[C@@H]1O[C@@H](O[C@H]2C[C@@H](O)[C@]3(CO)[C@H]4[C@H](O)C[C@]5(C)[C@@H](C6=CC(=O)OC6)CC[C@]5(O)[C@@H]4CC[C@]3(O)C2)[C@H](O)[C@H](O)[C@H]1O [OUABAIN] | – | – | – | – | – | – | – | – | 211 | > 10 | > 10 | 28 | 27 | 77 | 43 | 133
C[C@]12CCC(=O)C=C1CC[C@@H]1[C@@H]2CC[C@]2(C)[C@@H](c3ccc(=O)oc3)CC[C@]12O [SCILLARENONE] | – | – | – | – | – | – | – | – | 1610 | > 10 | > 10 | 73 | 333 | 399 | 284 | 341
CC(=O)O[C@H]1C[C@]2(O)[C@@H]3CC[C@@H]4C[C@@H](O)CC[C@]4(C)[C@H]3CC[C@]2(C)[C@H]1c1ccc(=O)oc1 [BUFOTALIN] | – | – | – | – | – | – | – | – | 65 | > 10 | > 10 | 9 | 14 | 74 | 34 | 37
C[C@]12CC[C@H](O)C[C@H]1CC[C@@H]1C2=C(O)C(=O)[C@]2(C)[C@@H](c3ccc(=O)oc3)CC[C@]12O [ARGENTINOGENIN] | – | – | – | – | – | – | – | – | 70 | > 10 | > 10 | 9 | 53 | 86 | 43 | 36
C[C@]12CC[C@H]3[C@@H](CC[C@H]4C[C@@H](O)CC[C@@]43C=O)[C@@]1(O)CC[C@@H]2c1ccc(=O)oc1 | – | – | – | – | – | – | – | – | 336 | > 10 | > 10 | 40 | 51 | 62 | 2430 | 278
CC(=O)OC[C@H]1CC[C@H]2[C@@H]3CC[C@@H]4C[C@@H](OC(C)=O)CC[C@]4(C)[C@H]3C(=O)[C@@H](OC(C)=O)[C@]12C | inactive | inactive | inactive | inactive | inactive | inactive | inactive | inactive | – | – | – | – | – | – | – | –
CC(=O)O[C@H]1CC[C@@]2(C)[C@H](CC[C@@H]3[C@@H]2[C@H](OC(C)=O)C(=O)[C@]2(C)[C@@H]4CC[C@]32OC4=O)C1 | inactive | inactive | inactive | inactive | inactive | inactive | inactive | inactive | – | – | – | – | – | – | – | –
C[C@H]1O[C@@H](O[C@H]2[C@@H](O)C[C@H](O[C@H]3[C@@H](O)C[C@H](O[C@H]4CC[C@@]5(C)[C@H](CC[C@@H]6[C@@H]5C[C@@H](O)[C@]5(C)[C@@H](C7=CC(=O)OC7)CC[C@]65O)C4)O[C@@H]3C)O[C@@H]2C)C[C@H](O)[C@@H]1O [DIGOXIN] | – | – | – | – | – | – | – | – | 266 | > 10 | > 10 | 40 | 50 | 146 | 75 | 426
CC(=O)O[C@H]1CC[C@@]2(C=O)[C@H](CC[C@@H]3[C@@H]2CC[C@]2(C)[C@@H](c4ccc(=O)oc4)C[C@H]4O[C@]342)C1 | – | – | – | – | – | – | – | – | > 10000 | > 10 | > 10 | 3660 | 7140 | 7050 | 5340 | > 10000
C[C@]12CC[C@H](O)C[C@@H]1CC[C@@H]1[C@@H]2CC[C@]2(C)[C@@H](c3ccc(=O)oc3)CC[C@]12O | – | – | – | – | – | – | – | – | 463 | > 10 | > 10 | 21 | – | 362 | 67 | 428
C[C@@H]1O[C@@H](O[C@H]2CC[C@]3(C=O)[C@H]4CC[C@]5(C)[C@@H](c6ccc(=O)oc6)CC[C@]5(O)[C@@H]4CC[C@]3(O)C2)[C@H](O)[C@H](O)[C@H]1O[C@@H]1O[C@H](CO)[C@@H](O)[C@H](O)[C@H]1O [HELLEBRIN] | – | – | – | – | – | – | – | – | 68 | > 10 | > 10 | 7 | 6 | 36 | 11 | 44
C[C@]12CC[C@H](O)C[C@H]1CC[C@@H]1[C@@H]2C(=O)[C@@H](O)[C@]2(C)[C@@H](c3ccc(=O)oc3)CC[C@]12O [BUFARENOGIN] | – | – | – | – | – | – | – | – | > 10000 | > 10 | > 10 | 2680 | 3840 | > 10000 | 7420 | 9300
